In publication PMC2361071, “A phase I and pharmacokinetic study of novel taxane BMS-188797 and cisplatin in patients with advanced solid tumours” (British Journal of Cancer, 2005):
Entries after “also recorded” stand apart in the source; their conditions may differ. Like-named read-outs stand apart in the source and are kept apart here.

Legend:
[1] = system: paclitaxel-resistant tumour models in mice; design: method as in Rose et al, 2001; settings: ref Rose et al, 2001; cited from earlier work
[2] = system: patients with advanced malignancies; design: method as in Sullivan et al, 2000; settings: single agent, 1-h infusion every 3 weeks; ref Sullivan et al, 2000; cited from earlier work
[3] = system: patients with advanced malignancies; design: method as in Advani et al, 2002; settings: weekly BMS-188797 with carboplatin, DLs AUC 6/33 mg m−2 and AUC 5/43 mg m−2, preliminary data; ref Advani et al, 2002; cited from earlier work
[4] = system: patients with advanced malignancies; design: method as in Advani et al (2003); settings: single agent, weekly administration; ref Advani et al (2003); cited from earlier work
patients = system: patients; design: method as in Sullivan et al, 2001; settings: ref Sullivan et al, 2001, cited from earlier work
[5] = system: patients with advanced solid tumours; experiment: Phase I dose escalation of BMS-188797 plus cisplatin: DLT, MTD and toxicity (NCI CTC v2.0); type: in vivo
Protocol: This study was an open-label, single-centre, phase I, dose-escalation trial with the primary objective to determine the MTD and DLT and to recommend a future phase II dose. Secondary objectives were safety, antitumour activity and pharmacokinetics of the experimental drug. The study was carried out with ethical committee approval.
BMS-188797 administered by a 1-h infusion was followed by a 1-h infusion of cisplatin starting 30 min after the end of the BMS-188797 infusion; both drugs were given on day 1, every 3 weeks. Six treatment cycles were planned. Treatment had to be discontinued upon progression or occurance of intolerable toxicity.
If no further DLT occurred, the next DL was opened. If the total number of patients with DLT at any DL was two or higher, then dose escalation was terminated and additional patients were enrolled at the next lower DL. The MTD was defined as the DL at which none of the three or one of six patients experienced a DLT. Once the MTD had been established, accrual at the respective DL was expanded to determine its suitability as the recommended phase II dose.
The DLT was defined as first-course toxicity with ANC <500 μl^−1 for ⩾5 days, or febrile neutropenia (fever >38.5°C and ANC <1000 μl^−1), or thrombocytopenia <25,000 μl^–1; or bleeding requiring platelet transfusion, or any other drug-related grade ⩾3 toxicity except fatigue/asthenia, transient arthralgia/myalgia, or grade 3 AST/ALT elevation (resolving to baseline within 3 weeks). Furthermore, delayed recovery from toxicity related to treatment with BMS-188797 and cisplatin that delayed scheduled retreatment for 21 days or longer was regarded as DLT.
(§1) Toxicity was evaluated according to NCI CTC (Vers. 2.0; revised April 30, 1999) in all patients receiving study drug. Tumour measurement was performed in patients with measurable disease after every other cycle; response was assessed according to World Health Organization (WHO) criteria. Ascites or serum tumour marker elevations were not considered in the assessment of response status except in case of progressive disease or complete remission when both had to be normalised.

[6] = system: patients with advanced solid tumours; experiment: Antitumour activity, response by WHO criteria; type: in vivo, human
Protocol: as §1

[7] = Plasma pharmacokinetics of BMS-188797 in patients, cycle 1 (HPLC, noncompartmental analysis); type: in vivo, human; settings: for AUC(0-inf) / Cmax / half-life: human, plasma, intravenous
Protocol: In all, 5 ml of blood were collected for pharmacokinectic analysis using Becton-Dickenson Vacutainers® that contained K3EDTA as the anticoagulant. Blood sampling for pharmacokinetics analysis was performed in all patients during cycle 1. Serial blood samples were drawn at the following times relative to the start of the 1 h infusion of BMS-188797: predose, 30 min, 58 min (drawn prior to the end of the infusion), and 1.25, 1.5, 2, 2.5, 3, 4, 5, 6, 8, 24, 48 and 72 h. Within 1 h of collection, the plasma was separated by centrifugation at 1000 rpm for 15 min at 4°C. Plasma was stored at or below […] until analysis. Plasma samples were analysed for BMS-188797 concentrations by HPLC. After the addition of internal standard, BMS-183061, to 1.0 ml of plasma, the sample was loaded onto a CN-U solid-phase extraction column. The compounds were eluted with 0.1% formic acid in methanol, the eluate evaporated to dryness, and the residue reconstituted. Chromatographic separation of the compounds was achieved on a YMC-ODS-AQ, 4.6 × 150 mm, 3 μm column using a mobile phase containing 30% water in acetonitrile. Detection was by ultraviolet absorbance at 228 nm. The standard curve range was 2–1000 ng ml^−1. The coefficient of variation (CV) for the between- and within-run precision for analytical quality control samples were no greater than 3.0 and 7.1%, respectively
Estimates of pharmacokinetic parameters for BMS-188797 were derived from individual concentration–time data sets by noncompartmental analyses ([Gibaldi and Perrier, 1982]). The values of the maximum plasma concentration (Cmax) were recorded directly from experimental observations. The area under the plasma concentration vs. time curve from time zero to the time of the last measurable concentration T (AUC0-T) was calculated using a combination of linear and log trapezoidal summations. The first-order rate constant of decline of BMS-188797 concentrations in the terminal phase of the plasma concentration–time data set, λ, was estimated by log-linear regression, using no weighting factor, of at least three data points yielding a minimum mean square error. The absolute value of λ was used to estimate the apparent terminal elimination half-life, t1/2. The last measurable concentration and the rate constant, λ, were used to extrapolate the AUC0-T to estimate AUC0-∞ (the area under the curve from time zero to infinity). The total body clearance (Cl) was calculated by dividing the dose by AUC0-∞. The volume of distribution at steady state (VSS) was calculated using standard noncompartmental methods.

[8] = system: human tumour cell lines highly resistant to paclitaxel; design: method as in Rose et al, 2001; settings: ref Rose et al, 2001, cited from earlier work
[9] = 1-h infusion every 3 weeks combined with cisplatin 75 mg m−2
[10] = 80 mg m−2 1-h infusion with cisplatin 75 mg m−2, cycle 1, n=3, mean±s.d.
[11] = 110 mg m−2 1-h infusion with cisplatin 75 mg m−2, cycle 1, n=12, mean±s.d.
[12] = 150 mg m−2 1-h infusion with cisplatin 75 mg m−2, cycle 1, n=1
[13] = mean±s.d. of the three dose groups (80, 110, 150 mg m−2), cycle 1

SMILES: COC(=O)O[C@@]12CO[C@@H]1C[C@H](O)[C@@]1(C)C(=O)[C@H](OC(C)=O)C3=C(C)[C@@H](OC(=O)[C@H](O)[C@@H](NC(=O)c4ccccc4)c4ccccc4)C[C@@](O)([C@@H](OC(=O)c4ccccc4)[C@H]21)C3(C)C [BMS-188797, 4-desacetyl-4-methyl carbonate derivate of paclitaxel]
- in vivo activity [1]: potent in vivo activity
- maximum tolerated dose (MTD) [2]: 175 mg m^−2
- dose-limiting toxicities [3]: prolonged grade 4 neutropenia and delayed haematological recovery
- MTD [4]: 50 mg m^−2
- MTD (patients; with carboplatin AUC 5, every 3 weeks): 125 mg m^−2
- Dose-limiting toxicities (DLT) (patients; with carboplatin, every 3 weeks): febrile neutropenia and slow recovery from neutropenia
- Mild hypersensitivity reactions (grade 2 rash and dyspnea), patients affected ([5]; 110 mg m−2 DL, with steroid and H1/H2-antagonist premedication): only one patient
- maximum tolerated dose (MTD) [5, 9]: 110 mg m^−2
- recommended phase II dose [5, 9]: 110 mg m^−2
- median duration of neutropenia ([5]; DL 1, 80 mg m−2): 4 days
- median time to the neutrophil nadir ([5]; DL 1, 80 mg m−2): 12 days
- median duration of neutropenia ([5]; DL 2, 110 mg m−2): 8 days
- median time to the neutrophil nadir ([5]; DL 2, 110 mg m−2): 14 days
- MTD (dose level designated) ([5]; DL 2, 110 mg m−2 with cisplatin 75 mg m−2): MTD
- median duration of neutropenia ([5]; DL 3, 150 mg m−2): 4 days
- median time to the neutrophil nadir ([5]; DL 3, 150 mg m−2): 8 days
- alopecia, patients affected ([5]; all dose levels, 16 patients): All patients but one
- stable disease as best response, patients ([6]; DL 1, 80 mg m−2 with cisplatin, ovarian cancer, NSCLC, CUP): three patients
- progressive disease, patients ([6]; DL 2, 110 mg m−2 with cisplatin, lung cancer (two), ovarian sarcoma, CUP): Four patients
- complete remissions ([6]; DL 2, 110 mg m−2 with cisplatin, ovarian (two) and cervical cancer (one)): three complete remissions
- partial response ([6]; DL 2, 110 mg m−2 with cisplatin, ovarian cancer): One partial response
- stable disease, patients ([6]; DL 2, 110 mg m−2 with cisplatin, urachus carcinoma and NSCLC): two patients
- best response of the only patient treated ([6]; DL 3, 150 mg m−2 with cisplatin, CUP): disease progression
- objective response, patients ([6]; all dose levels, 16 patients): four patients
- Cl [7, 10]: 333±14 (317, 344) ml min−1 m−2
- VSS [7, 10]: 331±135 (214, 478) l m−2
- interpatient coefficient of variation of CL ([7]; 110 mg m−2): 19%
- interpatient coefficient of variation of VSS ([7]; 110 mg m−2): 35%
- interpatient coefficient of variation of t1/2 ([7]; 110 mg m−2): 24%
- Cl [7, 11]: 322±60 (234, 437) ml min−1 m−2
- VSS [7, 11]: 244±86 (115, 395) l m−2
- range of AUC0-∞ values ([7]; 110 mg m−2 DL): 1.8 fold
- Cl [7, 12]: 206 NA ml min−1 m−2
- VSS [7, 12]: 209 NA l m−2
- dose dependence (linearity) of pharmacokinetics ([7]; 80-150 mg m−2 with cisplatin 75 mg m−2): appeared linear through the 110 mg m^−2, but not through the 150 mg m^−2 DL; also recorded: appeared independent of dose through the 110 mg m^−2 DL, but not through the 150 mg m^−2 DL; also recorded: appeared linear through a DL of 110 mg m^−2
- AUC(0-inf) [7, 10]: 4000 ± 184 ng·h/mL
- Cmax [7, 10]: 2650 ± 690 ng/mL
- half-life ([7]; 80 mg m−2 1-h infusion with cisplatin 75 mg m−2, cycle 1, n=3, mean±s.d., read-out: t1/2 (converted)): 1860 ± 702 min
- AUC(0-inf) [7, 11]: 5870 ± 1060 ng·h/mL
- Cmax [7, 11]: 3370 ± 591 ng/mL
- half-life ([7]; 110 mg m−2 1-h infusion with cisplatin 75 mg m−2, cycle 1, n=12, mean±s.d., read-out: t1/2 (converted)): 1840 ± 450 min
- AUC(0-inf) [7, 12]: 12200 ng·h/mL
- Cmax [7, 12]: 5770 ng/mL
- half-life ([7]; 150 mg m−2 1-h infusion with cisplatin 75 mg m−2, cycle 1, n=1, read-out: t1/2 (converted)): 1880 min
- half-life ([7]; 150 mg, mean±s.d. of the three dose groups (80, 110, 150 mg m−2), cycle 1, read-out: terminal half-life (converted)): 1850 ± 462 min
- clearance [7, 13]: 317±60 ml min^−1 m^−2
- volume of distribution at steady state [7, 13]: 258±96 l m^−2
- clearance in the 150 mg m−2 patient relative to patients at 80 or 110 mg m−2 ([7]; n=1 at 150 mg m−2): approximately one-third lower
- antiproliferative activity ([8]; cell lines resistant through P-glycoprotein overexpression or beta-tubulin mutations): potent antiproliferative activity
- cell cycle effect [8]: G2/M cell cycle arrest
